The values that follow come from patent US7205326B2, “Aniline derivatives, their manufacture and use as pharmaceutical agents” (Hoffmann-La Roche Inc., priority 2003, dated 2007).

In general, pIC50 refers to the IC50 on a negative log10 scale, so that one unit is a factor of ten. For orientation: melting point means the temperature, or range, at which the solid turns liquid.

pIC50: −log10 of the molar value.

In one series the test system is HCT116 cells. The series can be described thus: HCT116 cell proliferation MTT assay. The class given is cell-based. The following applies: HCT-116; HCT116 human colon carcinoma cells, MTT assay after 5 days (120 h) incubation, compound 3 uM to 0.15 nM. Here is the method: HCT116 cells (human colon carcinoma cell line) were cultivated in RPMI 1640, 2.5% FCS, 2 mM Glutamine, 100 u/ml Penicillin, 100 ug/ml Streptomycin. For the assay the cells were seeded in 384 well plates, 1000 cells per well, in the same medium
The next day compounds (dissolved 10 mM in DMSO) were added in various concentrations ranging from 3 uM to 0.15 nM. After 5 days the MTT assay was done mainly according to the instructions of the manufacturer (Cell proliferation kit I, MTT, from Roche Molecular Biochemicals). In brief: MTT labeling reagent was added to a final concentration of 0.5 mg/ml, added and incubated for 4 hrs at 37° C., 5% CO2. During this incubation time purple formazan crystals are formed. After addition of the solubilization solution (20% SDS in 0.02 M HCl) the plates were incubated overnight at 37° C., 5% CO2. After careful mixing plates were measured in Victor 2 (scanning multiwell spectrophotometer, Wallac) at 550 nm.
A decrease in number of living cells results in a decrease in the total metabolic activity in the sample. The decrease directly correlates to the amount of purple color resulting from the solubilization of the purple formazan crystals.
Materials: • HCT116 1000 cells in 60 ul per well of 384 well plate (Greiner) • Medium: RPMI 1640, 2.5% FCS, glutamine, pen/strep. • Incubate 1 day at 37° C.
Induction: • Dilution of compound in DMSO: 3 ul 10 mM+27 ul DMSO, dilute 1:3 • Add 2 ul of compound dilution row to 95 ul of medium • Add 10 ul of compound dilution to 60 ul medium in test plate results in 0.3% DMSO per well • Incubate 120 h (5 days) at 37° C., 5% CO2
Analysis: • Add 7 ul MTT ([…]), incubate 4 h at 37° C. • Add 30 ul lysis buffer (20% SDS, 0.04N HCl) per well • Incubate overnight at 37° C.
Measurement: • Victor 2 (scanning multiwell spectrophotometer, Wallac), at 550 nm • Determination of IC50 was done using XL-fit.

`O=C(Nc1ccc(CCCCn2ccnn2)cc1)c1coc(C=Cc2ccc(C(F)(F)F)cc2)n1` [Example 11, 2-[2-(4-Trifluoromethyl-phenyl)-vinyl]-oxazole-4-carboxylic acid [4-(4-[1,2,3]triazol-1-yl-butyl)-phenyl]-amide] gave a melting point of 183 to 185 °C. The pIC50 in the series on HCT116 cells was 7.40 to 7.70.

`FC1(F)Oc2ccc(C=Cc3nc(CNc4ccc(CCCCn5ccnn5)cc4)co3)cc2O1` [Example 7, {2-[2-(2,2-Difluoro-benzo[1,3]dioxol-5-yl)-vinyl]-oxazol-4-ylmethyl}-[4-(4-[1,2,3]triazol-1-yl-butyl)-phenyl]-amine] returned a melting point of 102 to 104 °C. The molecule also showed a negative-log IC50 (pIC50) with HCT116 cells of under 7.40.

On to `FC(F)(F)Oc1cccc(C=Cc2nc(CNc3ccc(CCCCn4ccnn4)cc3)co2)c1` [Example 28, [4-(4-[1,2,3]Triazol-1-yl-butyl)-phenyl]-{2-[2-(3-trifluoromethoxy-phenyl)-vinyl]-oxazol-4-ylmethyl}-amine], for which the melting point lay in the range of 91 to 93 °C. In the series with HCT116 cells, this molecule had a negative-log IC50 (pIC50) of under 7.40.

`Clc1ccc(C=Cc2nc(CNc3ccc(CCCCn4ccnn4)cc3)co2)cc1` [Example 5, {2-[2-(4-Chloro-phenyl)-vinyl]-oxazol-4-ylmethyl}-[4-(4-[1,2,3]triazol-1-yl-butyl)-phenyl]-amine] gave a melting point of 120 to 122 °C. Moreover, the pIC50 in the series on HCT116 cells was over 7.70.

On to `CN(Cc1coc(C=Cc2ccc(C(F)(F)F)cc2)n1)c1ccc(OCCCn2ccnn2)cc1` [Example 10, Methyl-[4-(3-[1,2,3]triazol-1-yl-propoxy)-phenyl]-{2-[2-(4-trifluoromethyl-phenyl)-vinyl]-oxazol-4-ylmethyl}-amine], for which the melting point is 137 to 138 °C. The molecule further gave a negative logarithm of the IC50 (pIC50) in the series on HCT116 cells of under 7.40.

`[O-][S+](c1ccc(/C=C/c2nc(CNc3ccc(CCCCn4ccnn4)cc3)co2)cc1)C(F)(F)F` (stereo not drawn) [Example 33, [4-(4-[1,2,3]Triazol-1-yl-butyl)phenyl]-{2-[(E)-2-(-4-trifluoromethanesulfinyl-phenyl)-vinyl]-oxazol-4-ylmethyl}-amine] had a melting point of 121 to 124 °C. In the series on HCT116 cells, this molecule showed a pIC50 of under 7.40.

`Clc1ccc(C=Cc2nc(CNc3ccc(CCCCn4ccnn4)cc3)co2)cc1Cl` [Example 25, {2-[2-(3,4-Dichloro-phenyl)-vinyl]-oxazol-4-ylmethyl}-[4-(4-[1,2,3]triazol-1-yl-butyl)-phenyl]-amine] gave a melting point of 76.8 to 78.8 °C. The molecule further had a negative-log IC50 (pIC50) in the series with HCT116 cells of over 7.70.

`FC(F)(F)c1ccc(C=Cc2nc(CNc3ccc(CCCCn4ccnn4)cc3)co2)cc1` [Example 2, [4-(4-[1,2,3]Triazol-1-yl-butyl)-phenyl]-{2-[2-(4-trifluoromethyl-phenyl)-vinyl]-oxazol-4-ylmethyl}-amine] gave a melting point of 113 to 115 °C. This molecule gave a pIC50 with HCT116 cells of over 7.70.

`CN(Cc1coc(C=Cc2ccc(C(F)(F)F)cc2)n1)c1ccc(CCCCn2ccnn2)cc1` [Example 3, Methyl-[4-(4-[1,2,3]triazol-1-yl-butyl)-phenyl]-{2-[2-(4-trifluoromethyl-phenyl)-vinyl]-oxazol-4-ylmethyl}-amine]: the melting point fell in the range of 112 to 114 °C. This molecule also showed a pIC50 in the series with HCT116 cells of over 7.70.

`FC(F)(F)Sc1ccc(C=Cc2nc(CNc3ccc(CCCCn4ccnn4)cc3)co2)cc1` [Example 8, [4-(4-[1,2,3]Triazol-1-yl-butyl)-phenyl]-{2-[2-(4-trifluoromethylsulfanyl-phenyl)-vinyl]-oxazol-4-ylmethyl}-amine]: the melting point was in the range of 76 to 78 °C. For the same molecule, in the series with HCT116 cells, the negative-log IC50 (pIC50) is over 7.70.

As to `FC(F)(F)Oc1ccc(C=Cc2nc(CNc3ccc(CCCCn4ccnn4)cc3)co2)cc1` [Example 1, [4-(4-[1,2,3]Triazol-1-yl-butyl)-phenyl]-{2-[2-(4-trifluoromethoxy-phenyl)-vinyl]-oxazol-4-ylmethyl}-amine], the melting point is 103 to 105 °C. The same molecule gave a pIC50 in the series on HCT116 cells of over 7.70.

In the case of `Fc1ccc(C=Cc2nc(CNc3ccc(CCCCn4ccnn4)cc3)co2)c(C(F)(F)F)c1` [Example 27, {2-[2-(4-Fluoro-2-trifluoromethyl-phenyl)-vinyl]-oxazol-4-ylmethyl}-[4-(4-[1,2,3]triazol-1-yl-butyl)-phenyl]-amine], the melting point is 109 to 111 °C. In the series with HCT116 cells, this molecule had a pIC50 of under 7.40.
